According to ChEMBL document CHEMBL3817808, “Enlarging the chemical space of anti-leishmanials: a structureactivity relationship study of peptoids against Leishmania mexicana, a causative agent of cutaneous leishmaniasis” (Medchemcomm, 2016):
Non-standard residues stand in square brackets, D forms with d. Residues, ends and D or L forms follow the SMILES beside them. Gly(Nα-4-Cl-benzyl) = O=C(O)CNCc1ccc(Cl)cc1; N(4-F-Bzl)Gly = O=C(O)CNCc1ccc(F)cc1; Gly(N-(CH2)6NH2) = NCCCCCCNCC(=O)O; Gly(N-2-aminoethyl) = NCCNCC(=O)O; N(isopentyl)Gly = CC(C)CCNCC(=O)O; Nspe = C[C@H](NCC(=O)O)c1ccccc1; Nphe = O=C(O)CNCc1ccccc1; NPrGly = CCCNCC(=O)O; Nlys = NCCCCNCC(=O)O

How the values were obtained:
[1] = test system: Leishmania mexicana; assay: Antileishmanial activity against axenic amastigote form of Leishmania mexicana MNYC/BZ/62/M379 assessed as parasite viability measured after 1 hr by alamarBlue staining based fluorescence analysis; format: functional; settings: MNYC/BZ/62/M379, 1 h, read-out: ED50 (the source's name)
[2] = test system: Leishmania mexicana; assay: Antileishmanial activity against Leishmania mexicana MNYC/BZ/62/M379 promastigotes assessed as parasite viability measured after 1 hr by alamarBlue staining based fluorescence analysis; format: functional; settings: MNYC/BZ/62/M379, 1 h, read-out: ED50 (the source's name)

Row | SMILES | EC50 [1] [µM] | EC50 [2] [µM]
1 | COc1ccc(CN(CC(N)=O)C(=O)CN(Cc2ccc(OC)cc2)C(=O)CN(CCCCN)C(=O)CN(Cc2ccc(OC)cc2)C(=O)CN(Cc2ccc(OC)cc2)C(=O)CNCCCCN)cc1 | > 100 | > 100
2 | C[C@@H](c1ccccc1)N(CC(N)=O)C(=O)CN(C(=O)CN(CCCCCCN)C(=O)CN(C(=O)CN(C(=O)CNCCCCCCN)[C@@H](C)c1ccccc1)[C@@H](C)c1ccccc1)[C@@H](C)c1ccccc1 | > 100 | > 100
3 | COc1ccc(CN(CC(N)=O)C(=O)CN(Cc2ccc(OC)cc2)C(=O)CN(CCCCN)C(=O)CN(Cc2ccc(OC)cc2)C(=O)CN(Cc2ccc(OC)cc2)C(=O)CN(CCCCN)C(=O)CN(Cc2ccc(OC)cc2)C(=O)CN(Cc2ccc(OC)cc2)C(=O)CNCCCCN)cc1 | > 100 | > 100
4 | C[C@@H](c1ccccc1)N(CC(N)=O)C(=O)CN(C(=O)CN(CCCCN)C(=O)CN(Cc1ccc(F)cc1)C(=O)CN(Cc1ccc(F)cc1)C(=O)CNCCCCN)[C@@H](C)c1ccccc1 | > 100 | > 100
5 | NCCCCNCC(=O)N(CC(=O)N(CC(=O)N(CCCCN)CC(=O)N(CC(=O)N(CC(=O)N(CCCCN)CC(=O)N(CC(=O)N(CC(N)=O)Cc1cccc(F)c1)Cc1cccc(F)c1)Cc1cccc(F)c1)Cc1cccc(F)c1)Cc1cccc(F)c1)Cc1cccc(F)c1 | > 100 | 17
6 | COc1ccc(CN(CC(N)=O)C(=O)CN(Cc2ccc(OC)cc2)C(=O)CN(CCCCN)C(=O)CN(Cc2ccc(OC)cc2)C(=O)CN(Cc2ccc(OC)cc2)C(=O)CN(CCCCN)C(=O)CN(Cc2ccc(OC)cc2)C(=O)CN(Cc2ccc(OC)cc2)C(=O)CN(CCCCN)C(=O)CN(Cc2ccc(OC)cc2)C(=O)CN(Cc2ccc(OC)cc2)C(=O)CNCCCCN)cc1 | > 100 | 42
7 | NCCCCNCC(=O)N(CC(=O)N(CC(=O)N(CCCCN)CC(=O)N(CC(=O)N(CC(=O)N(CCCCN)CC(=O)N(CC(=O)N(CC(N)=O)Cc1ccccc1)Cc1ccccc1)Cc1ccccc1)Cc1ccccc1)Cc1ccccc1)Cc1ccccc1 | > 100 | > 100
8 | C[C@@H](c1ccccc1)N(CC(N)=O)C(=O)CN(C(=O)CN(CCN)C(=O)CN(C(=O)CN(C(=O)CNCCN)[C@@H](C)c1ccccc1)[C@@H](C)c1ccccc1)[C@@H](C)c1ccccc1 | > 100 | > 100
9 | C[C@@H](c1ccccc1)N(CC(N)=O)C(=O)CN(Cc1ccc(F)cc1)C(=O)CN(CCCCN)C(=O)CN(C(=O)CN(Cc1ccc(F)cc1)C(=O)CNCCCCN)[C@@H](C)c1ccccc1 | > 100 | > 100
10 | NCCCCNCC(=O)N(CC(=O)N(CC(=O)N(CCCCN)CC(=O)N(CC(=O)N(CC(=O)N(CCCCN)CC(=O)N(CC(=O)N(CC(=O)N(CCCCN)CC(=O)N(CC(=O)N(CC(N)=O)Cc1cccc(F)c1)Cc1cccc(F)c1)Cc1cccc(F)c1)Cc1cccc(F)c1)Cc1cccc(F)c1)Cc1cccc(F)c1)Cc1cccc(F)c1)Cc1cccc(F)c1 | 69 | 14
11 | NCCCCNCC(=O)N(CC(=O)N(CC(=O)N(CCCCN)CC(=O)N(CC(=O)N(CC(N)=O)Cc1cccc(F)c1)Cc1cccc(F)c1)Cc1cccc(F)c1)Cc1cccc(F)c1 | > 100 | > 100
12 | NCCNCC(=O)N(CC(=O)N(CC(=O)N(CCN)CC(=O)N(CC(=O)N(CC(N)=O)Cc1ccccc1)Cc1ccccc1)Cc1ccccc1)Cc1ccccc1 (H-[Gly(N-2-aminoethyl)][Nphe][Nphe][Gly(N-2-aminoethyl)][Nphe][Nphe]-NH2) | > 100 | > 100
13 | NCCNCC(=O)N(CC(=O)N(CC(=O)N(CCN)CC(=O)N(CC(=O)N(CC(=O)N(CCN)CC(=O)N(CC(=O)N(CC(N)=O)Cc1ccccc1)Cc1ccccc1)Cc1ccccc1)Cc1ccccc1)Cc1ccccc1)Cc1ccccc1 (H-[Gly(N-2-aminoethyl)][Nphe][Nphe][Gly(N-2-aminoethyl)][Nphe][Nphe][Gly(N-2-aminoethyl)][Nphe][Nphe]-NH2) | > 100 | > 100
14 | NCCCCCCNCC(=O)N(CC(=O)N(CC(=O)N(CCCCCCN)CC(=O)N(CC(=O)N(CC(N)=O)Cc1ccccc1)Cc1ccccc1)Cc1ccccc1)Cc1ccccc1 (H-[Gly(N-(CH2)6NH2)][Nphe][Nphe][Gly(N-(CH2)6NH2)][Nphe][Nphe]-NH2) | > 100 | > 100
15 | NCCCCCCNCC(=O)N(CC(=O)N(CC(=O)N(CCCCCCN)CC(=O)N(CC(=O)N(CC(=O)N(CCCCCCN)CC(=O)N(CC(=O)N(CC(N)=O)Cc1ccccc1)Cc1ccccc1)Cc1ccccc1)Cc1ccccc1)Cc1ccccc1)Cc1ccccc1 (H-[Gly(N-(CH2)6NH2)][Nphe][Nphe][Gly(N-(CH2)6NH2)][Nphe][Nphe][Gly(N-(CH2)6NH2)][Nphe][Nphe]-NH2) | > 100 | > 100
16 | NCCCCCCNCC(=O)N(CC(=O)N(CC(=O)N(CCCCCCN)CC(=O)N(CC(=O)N(CC(=O)N(CCCCCCN)CC(=O)N(CC(=O)N(CC(=O)N(CCCCCCN)CC(=O)N(CC(=O)N(CC(N)=O)Cc1ccccc1)Cc1ccccc1)Cc1ccccc1)Cc1ccccc1)Cc1ccccc1)Cc1ccccc1)Cc1ccccc1)Cc1ccccc1 (H-[Gly(N-(CH2)6NH2)][Nphe][Nphe][Gly(N-(CH2)6NH2)][Nphe][Nphe][Gly(N-(CH2)6NH2)][Nphe][Nphe][Gly(N-(CH2)6NH2)][Nphe][Nphe]-NH2) | > 100 | 21
17 | C[C@@H](c1ccccc1)N(CC(N)=O)C(=O)CN(C(=O)CN(CCCCCCN)C(=O)CN(C(=O)CN(C(=O)CN(CCCCCCN)C(=O)CN(C(=O)CN(C(=O)CNCCCCCCN)[C@@H](C)c1ccccc1)[C@@H](C)c1ccccc1)[C@@H](C)c1ccccc1)[C@@H](C)c1ccccc1)[C@@H](C)c1ccccc1 (H-[Gly(N-(CH2)6NH2)][Nspe][Nspe][Gly(N-(CH2)6NH2)][Nspe][Nspe][Gly(N-(CH2)6NH2)][Nspe][Nspe]-NH2) | > 100 | 25
18 | C[C@@H](c1ccccc1)N(CC(N)=O)C(=O)CN(C(=O)CN(CCCCCCN)C(=O)CN(C(=O)CN(C(=O)CN(CCCCCCN)C(=O)CN(C(=O)CN(C(=O)CN(CCCCCCN)C(=O)CN(C(=O)CN(C(=O)CNCCCCCCN)[C@@H](C)c1ccccc1)[C@@H](C)c1ccccc1)[C@@H](C)c1ccccc1)[C@@H](C)c1ccccc1)[C@@H](C)c1ccccc1)[C@@H](C)c1ccccc1)[C@@H](C)c1ccccc1 (H-[Gly(N-(CH2)6NH2)][Nspe][Nspe][Gly(N-(CH2)6NH2)][Nspe][Nspe][Gly(N-(CH2)6NH2)][Nspe][Nspe][Gly(N-(CH2)6NH2)][Nspe][Nspe]-NH2) | > 100 | 11
19 | NCCCCNCC(=O)N(CC(=O)N(CC(=O)N(CCCCN)CC(=O)N(CC(=O)N(CC(N)=O)Cc1ccc(Cl)cc1)Cc1ccc(Cl)cc1)Cc1ccc(Cl)cc1)Cc1ccc(Cl)cc1 (H-[Nlys][Gly(Nα-4-Cl-benzyl)][Gly(Nα-4-Cl-benzyl)][Nlys][Gly(Nα-4-Cl-benzyl)][Gly(Nα-4-Cl-benzyl)]-NH2) | > 100 | 29
20 | NCCCCNCC(=O)N(CC(=O)N(CC(=O)N(CCCCN)CC(=O)N(CC(=O)N(CC(=O)N(CCCCN)CC(=O)N(CC(=O)N(CC(N)=O)Cc1ccc(Cl)cc1)Cc1ccc(Cl)cc1)Cc1ccc(Cl)cc1)Cc1ccc(Cl)cc1)Cc1ccc(Cl)cc1)Cc1ccc(Cl)cc1 (H-[Nlys][Gly(Nα-4-Cl-benzyl)][Gly(Nα-4-Cl-benzyl)][Nlys][Gly(Nα-4-Cl-benzyl)][Gly(Nα-4-Cl-benzyl)][Nlys][Gly(Nα-4-Cl-benzyl)][Gly(Nα-4-Cl-benzyl)]-NH2) | 85 | 22
21 | NCCCCNCC(=O)N(CC(=O)N(CC(=O)N(CCCCN)CC(=O)N(CC(=O)N(CC(=O)N(CCCCN)CC(=O)N(CC(=O)N(CC(=O)N(CCCCN)CC(=O)N(CC(=O)N(CC(N)=O)Cc1ccc(Cl)cc1)Cc1ccc(Cl)cc1)Cc1ccc(Cl)cc1)Cc1ccc(Cl)cc1)Cc1ccc(Cl)cc1)Cc1ccc(Cl)cc1)Cc1ccc(Cl)cc1)Cc1ccc(Cl)cc1 (H-[Nlys][Gly(Nα-4-Cl-benzyl)][Gly(Nα-4-Cl-benzyl)][Nlys][Gly(Nα-4-Cl-benzyl)][Gly(Nα-4-Cl-benzyl)][Nlys][Gly(Nα-4-Cl-benzyl)][Gly(Nα-4-Cl-benzyl)][Nlys][Gly(Nα-4-Cl-benzyl)][Gly(Nα-4-Cl-benzyl)]-NH2) | 44 | 28
22 | NCCCCNCC(=O)N(CC(=O)N(CC(=O)N(CCCCN)CC(=O)N(CC(=O)N(CC(N)=O)Cc1ccc(F)cc1)Cc1ccc(F)cc1)Cc1ccc(F)cc1)Cc1ccc(F)cc1 (H-[Nlys][N(4-F-Bzl)Gly][N(4-F-Bzl)Gly][Nlys][N(4-F-Bzl)Gly][N(4-F-Bzl)Gly]-NH2) | > 100 | > 100
23 | NCCCCNCC(=O)N(CC(=O)N(CC(=O)N(CCCCN)CC(=O)N(CC(=O)N(CC(=O)N(CCCCN)CC(=O)N(CC(=O)N(CC(N)=O)Cc1ccc(F)cc1)Cc1ccc(F)cc1)Cc1ccc(F)cc1)Cc1ccc(F)cc1)Cc1ccc(F)cc1)Cc1ccc(F)cc1 (H-[Nlys][N(4-F-Bzl)Gly][N(4-F-Bzl)Gly][Nlys][N(4-F-Bzl)Gly][N(4-F-Bzl)Gly][Nlys][N(4-F-Bzl)Gly][N(4-F-Bzl)Gly]-NH2) | > 100 | 19
24 | NCCCCNCC(=O)N(CC(=O)N(CC(=O)N(CCCCN)CC(=O)N(CC(=O)N(CC(=O)N(CCCCN)CC(=O)N(CC(=O)N(CC(=O)N(CCCCN)CC(=O)N(CC(=O)N(CC(N)=O)Cc1ccc(F)cc1)Cc1ccc(F)cc1)Cc1ccc(F)cc1)Cc1ccc(F)cc1)Cc1ccc(F)cc1)Cc1ccc(F)cc1)Cc1ccc(F)cc1)Cc1ccc(F)cc1 (H-[Nlys][N(4-F-Bzl)Gly][N(4-F-Bzl)Gly][Nlys][N(4-F-Bzl)Gly][N(4-F-Bzl)Gly][Nlys][N(4-F-Bzl)Gly][N(4-F-Bzl)Gly][Nlys][N(4-F-Bzl)Gly][N(4-F-Bzl)Gly]-NH2) | 75 | 15
25 | CC(C)CCN(CC(=O)N(CC(N)=O)[C@@H](C)c1ccccc1)C(=O)CN(CCCCN)C(=O)CN(C(=O)CN(CCC(C)C)C(=O)CNCCCCN)[C@@H](C)c1ccccc1 (H-[Nlys][N(isopentyl)Gly][Nspe][Nlys][N(isopentyl)Gly][Nspe]-NH2) | > 100 | > 100
26 | CCCN(CC(=O)N(CC(N)=O)[C@@H](C)c1ccccc1)C(=O)CN(CCCCN)C(=O)CN(C(=O)CN(CCC)C(=O)CNCCCCN)[C@@H](C)c1ccccc1 (H-[Nlys][NPrGly][Nspe][Nlys][NPrGly][Nspe]-NH2) | > 100 | > 100
